Test results taken from PMC11123991, “Novel 9-Methylanthracene Derivatives as p53 Activators for the Treatment of Glioblastoma Multiforme” (Molecules, 2024).

What was measured:
[1] = test system: human glioblastoma cell line U87; assay: MTT antiproliferative assay in U87 cells; assay type: cell-based; details: for inhibition at 10 µM: read-out: U87 (% Inhib. @ 10 µM); for IC50: mean ± SD (n = 3); for fold decrease in anti-glioma activity: relative to 14a–14c
Procedure: (§1) U87, Hela, MCF-7, and HHL-5 cells were provided by Chinese Academy of Medical Sciences (Beijing, China). The cancer cells were cultured in DMEM media containing 10% heat-inactivated fetal calf serum. All cells were incubated at 37 °C in a 5% CO2 humidified atmosphere and harvested in the exponential growth phase for assays.
(§2) Cells were seeded in a 96-well plate and treated with the test substance at the desired concentration for 72 h. In cytotoxicity experiments, cells were treated with 10 µM of the test compound or 1 µM XI-011 and doxorubicin as positive controls. DMSO (1%) was used as a negative control. In the IC50 analysis, doxorubicin, XI-011, 13d, 13e, 14a, 14b, and, 14n were applied to HHL-5 at 50, 25, 10, 5, 2.5, 1.25, 0.625, 0.3125, and 0.15625 µM and U87 cells at 10, 7.5, 5, […], 1.25, 0.625, 0.3125, and 0.15625 µM, whereas 30, 10, 3, 0.5, and 0.1 µM were applied to Hela and MCF-7 cells. Treated cells were incubated with an MTT solution for 2 h and then with DMSO to dissolve the crystals. Absorbance was determined at 570 nm using a microplate reader (BioTek, Seattle, DC, USA). IC50 values were calculated using the Hill model in GraphPad Prism 8.0.2 software.

[2] = test system: HHL-5 human normal cell line; assay: MTT cytotoxicity assay in normal HHL-5 cells; assay type: cell-based; details: for IC50: Homo sapiens, HHL-5, normal cell line, 72 h, MTT, mean ± SD (n = 3)
Procedure: as §1, §2

[3] = test system: human cervical cancer cell line HeLa; assay: MTT antiproliferative assay in HeLa cells; assay type: cell-based; details: for IC50: Homo sapiens, 72 h, MTT, mean ± SD (n = 3)
Procedure: as §1, §2

[4] = test system: human breast cancer cell line MCF-7; assay: MTT antiproliferative assay in MCF-7 cells; assay type: cell-based; details: MCF7, 72 h, mean ± SD (n = 3)
Procedure: as §1, §2

U87 cells [5] = assay: Flow cytometric apoptosis analysis in U87 cells; assay type: cell-based, human; details: 24 h
Procedure: Reducing MDM4 expression restores the p53 function and increases apoptotic cells. The apoptotic effects of compound 13e were determined in U87 cells by flow cytometry. […] 13e induced 21% apoptosis at 1 µM, which was slightly lower than the 23% apoptosis induced by XI-011. At 2 µM 13e, apoptosis was up to 25.9%. […] The mechanism by which 13e induces apoptosis in U87 cells may be related to its ability to downregulate MDM4 expression and stabilize p53 protein.

MDM4 = assay: Western blot of MDM4 expression in U87 cells; assay type: cell-based, human; details: U87, 24 h, 0.5, 1 and 2 µM
Procedure: (§3) Protein levels in U87 cells treated with test compound 13e (0.5, 1, and 2 µM) for 24 h were measured by Western blot analysis as described previously. Briefly, after 13e treatment, cells were lysed in RIPA buffer. Proteins were separated by 8% SDS-PAGE and transferred to a PVDF membrane (Millipore, Billerica, MA, USA). The membrane was incubated with an anti-MDM4 antibody (A300-287A, Bethyl Laboratories, Montgomery, TX, USA), anti-p53 antibody (sc-126, Santa Cruz Biotechnology, Inc., Dallas, TX, USA), or anti-GAPDH antibody (AG019, Beyotime, Shanghai, China) followed by an HRP-linked secondary antibody (A0216, Beyotime) for 2 h. ECL reagent was used for chemiluminescent development. Densitometric analysis of protein bands was performed using ImageJ V.1.8.0 software.

p53 = assay: Western blot of p53 expression in U87 cells; assay type: cell-based, human; details: U87, 24 h, 0.5, 1 and 2 µM
Procedure: as §3

U87 cells [6] = assay: Flow cytometric cell cycle analysis in U87 cells; assay type: cell-based, human; details: U87, 24 h, 0.5, 1 and 2 µM
Procedure: Cells were cultured for 24 h in a 6-well plate, and then the test compound (0.5, 1, and 2 µM) was added to the culture medium. After treatment for 24 h, the cells were harvested and fixed at 4 °C overnight in an ethanol solution (80%). The cells were washed with PBS and stained with a PI solution ([…] in PBS). After 30 min, the cells were subjected to flow cytometry (C6; BD, Franklin Lakes, NJ, USA). The recorded cell fluorescence was used to analyze the cell cycle distribution.

[7] = Homo sapiens, U-87 MG, 72 h, 10 µM, 72 h, MTT, triplicates
[8] = Homo sapiens, U-87 MG, 72 h, MTT

Compound: CNC(=N)SCc1ccc(C)c2ccccc12 [12h]
- inhibition at 10 µM [1, 7]: 9.9%

Compound: N=C(N)SCc1ccc2ccccc2c1 [12e]
- inhibition at 10 µM [1, 7]: 1.5%

Compound: CCCCCCNC(=N)SCc1c2ccccc2nc2ccccc12 [14r]
- inhibition at 10 µM [1, 7]: 2.1%

Compound: CCc1c2ccccc2c(CSC(=N)N(C)N)c2ccccc12 [14c]
- inhibition at 10 µM [1, 7]: 83.6%

Compound: CC(C)=NNC(=N)SCc1c2ccccc2cc2ccccc12 [14k]
- inhibition at 10 µM [1, 7]: 14.2%

Compound: Cc1c2ccccc2c(CS/C(=N\c2ccccc2)Nc2ccccc2)c2ccccc12 [13k]
- inhibition at 10 µM [1, 7]: 28.1%

Compound: Cc1c2ccccc2c(CSC2=NC(=O)CC(=O)N2)c2ccccc12 [13h]
- inhibition at 10 µM [1, 7]: 0.7%

Compound: CCOC(=O)c1cnc(SCc2c3ccccc3c(C)c3ccccc23)[nH]1 [13i]
- inhibition at 10 µM [1, 7]: 31.2%

Compound: CC(=O)NC(=N)SCc1c2ccccc2c(C)c2ccccc12 [13b]
- inhibition at 10 µM [1, 7]: 19.3%

Compound: CC(=O)NC(=N)SCc1ccc(C)cc1 [12j]
- inhibition at 10 µM [1, 7]: 6.8%

Compound: N=C(N)SCc1c2ccccc2nc2ccccc12 [14q]
- inhibition at 10 µM [1, 7]: 12.5%

Compound: N=C(NN)SCc1cccc2ccccc12 [12g]
- inhibition at 10 µM [1, 7]: 14.5%

Compound: Cc1c2ccccc2c(CSC(=N)NC(=N)N)c2ccccc12 [13c]
- inhibition at 10 µM [1, 7]: 35.4%

Compound: CNC(=N)SCc1c2ccccc2c(Br)c2ccccc12 [14n]
- IC50 [2]: 1670 ± 160 nM
- IC50 [3]: 7740 ± 810 nM
- fold reduction in anti-cervical cancer activity ([3]; bromo versus methyl and ethyl analogs (14a, 14b, XI-011)): 1–2 fold
- IC50 ([1]; 72 h, MTT): 1840 ± 120 nM
- inhibition at 10 µM [1, 7]: 86.5%
- IC50 [1, 8]: < 2000 nM
- IC50 [4]: 7600 ± 1370 nM

Compound: Cc1ccc(CSC(=N)NN)c2ccccc12 [12f]
- inhibition at 10 µM [1, 7]: 13.1%

Compound: CCc1c2ccccc2c(CSC(=N)N)c2ccccc12 [14a]
- IC50 [2]: 1510 ± 160 nM
- IC50 [3]: 3640 ± 270 nM
- IC50 ([1]; 72 h, MTT): 1240 ± 240 nM
- inhibition at 10 µM [1, 7]: 79%
- IC50 [1, 8]: < 2000 nM
- IC50 [4]: 4560 ± 30 nM

Compound: Cc1c2ccccc2c(CSC(=N)Nc2ccccc2)c2ccccc12 [13j]
- inhibition at 10 µM [1, 7]: 13.3%

Compound: CNC(=N)SCc1ccc2ccccc2n1 [12l]
- inhibition at 10 µM [1, 7]: 11.3%

Compound: Cc1ccc(CSC(=N)N)c2ccccc12 [12a]
- inhibition at 10 µM [1, 7]: 15.2%

Compound: CC(=O)NC(=N)SCc1c2ccccc2cc2ccccc12 [14l]
- inhibition at 10 µM [1, 7]: 0.7%

Compound: N=C(NN)SCc1c2ccccc2c(Br)c2ccccc12 [14o]
- inhibition at 10 µM [1, 7]: 50.7%

Compound: N=C(N)SC1c2ccccc2CCc2ccccc21 [14s]
- inhibition at 10 µM [1, 7]: 6.9%
- fold less potency than XI-011 ([1]; U87 inhibition rate at 10 µM): approximately 12 fold

Compound: N=C(N)SCc1ccc([N+](=O)[O-])cc1 [12d]
- inhibition at 10 µM [1, 7]: 14.8%

Compound: N=C(NN)SCc1c2ccccc2nc2ccccc12 [14p]
- inhibition at 10 µM [1, 7]: 19%

Compound: CNC(=N)SCc1c2ccccc2c(C)c2ccccc12 [13d]
- IC50 [2]: 850 ± 100 nM
- IC50 [3]: 5660 ± 290 nM
- IC50 ([1]; 72 h, MTT): 1620 ± 20 nM
- inhibition at 10 µM [1, 7]: 93.3%
- IC50 [1, 8]: < 2000 nM
- IC50 [4]: 4740 ± 200 nM

Compound: CCc1c2ccccc2c(CSC(=N)NC)c2ccccc12 [14b]
- IC50 [2]: 1620 ± 130 nM
- IC50 [3]: 2660 ± 190 nM
- IC50 ([1]; 72 h, MTT): 1350 ± 100 nM
- inhibition at 10 µM [1, 7]: 94.7%
- IC50 [1, 8]: < 2000 nM
- IC50 [4]: 4550 ± 270 nM

Compound: Cc1c2ccccc2c(CSC(=N)N)c2ccccc12 [XI-011, (10-methylanthracen-9-yl)methyl carbamimidothioate, reference compound]
- IC50 [2]: 550 ± 30 nM
- IC50 [3]: 1510 ± 60 nM
- inhibition at 10 µM [1, 7]: 91.8%
- IC50 [1, 8]: 690 ± 20 nM
- apoptosis (U87 cells [5]; U87, 1 µM): 23%
- IC50 [4]: 4870 ± 300 nM

Compound: Cc1ccc(CSC(=N)N)cc1 [12c]
- inhibition at 10 µM [1, 7]: 11.8%

Compound: COc1cccc2c1C(=O)c1c(O)c3c(c(O)c1C2=O)C[C@@](O)(C(=O)CO)C[C@@H]3O[C@H]1C[C@H](N)[C@H](O)[C@H](C)O1 [DOX, doxorubicin, reference compound]
- IC50 [2]: 320 ± 20 nM
- IC50 [3]: 540 ± 50 nM
- inhibition at 10 µM [1, 7]: 81.1%
- IC50 [1, 8]: 440 ± 60 nM
- IC50 [4]: 1320 ± 160 nM

Compound: N=C(N)SCc1c2ccccc2c(Br)c2ccccc12 [14m]
- inhibition at 10 µM [1, 7]: 36.8%

Compound: CCCCCCNC(=N)SCc1c2ccccc2c(CC)c2ccccc12 [14f]
- inhibition at 10 µM [1, 7]: 43.6%
- fold decrease in anti-glioma activity ([1]; U87 inhibition rate at 10 µM): 3~4 fold

Compound: Cc1c2ccccc2c(CSC(=N)NN)c2ccccc12 [13a]
- inhibition at 10 µM [1, 7]: 57.9%
- fold more potency than 12f ([1]; U87 inhibition rate at 10 µM): approximately 4 fold

Compound: CCc1c2ccccc2c(CSC(=N)Nc2ccc(C(F)(F)F)cc2)c2ccccc12 [14g]
- inhibition at 10 µM [1, 7]: 28%
- fold decrease in anti-glioma activity ([1]; U87 inhibition rate at 10 µM): 3~4 fold

Compound: N=C(N)SCc1cccc2ccccc12 [12b]
- inhibition at 10 µM [1, 7]: 9%

Compound: Cc1c2ccccc2c(CSC(=N)N(C)N)c2ccccc12 [13e]
- fold lesser toxicity to human normal HHL-5 cells than to U87 cells ([2]; HHL-5 IC50 versus U87 IC50): 2 fold
- IC50 [2]: 1110 ± 80 nM
- MDM4 expression (MDM4): dose-dependent suppression of MDM4 expression
- IC50 [3]: 1630 ± 250 nM
- inhibition at 10 µM [1, 7]: 88.6%
- apoptosis (U87 cells [5]; U87, 1 µM): 21%
- apoptosis (U87 cells [5]; U87, 2 µM): 25.9%
- p53 protein expression (p53): significantly upregulated p53 protein expression
- IC50 [4]: 970 ± 110 nM
- cell cycle effect (U87 cells [6]): arrested U87 cells in G2/M phase

Compound: N=C(NN)SCc1c2ccccc2cc2ccccc12 [14j]
- inhibition at 10 µM [1, 7]: 11.8%

Compound: CCCCCCNC(=N)SCc1c2ccccc2c(C)c2ccccc12 [13l]
- inhibition at 10 µM [1, 7]: 86.7%
- fold potency improvement in U87 cells compared with aryl-derived compounds ([1]; U87 inhibition rate at 10 µM): 3–4 fold

Compound: CCc1c2ccccc2c(CSC(=N)NC(C)=O)c2ccccc12 [14e]
- inhibition at 10 µM [1, 7]: 19.3%
- fold decrease in anti-glioma activity ([1]; U87 inhibition rate at 10 µM): 3~4 fold

Compound: Cc1c2ccccc2c(CSc2ncc[nH]2)c2ccccc12 [13g]
- inhibition at 10 µM [1, 7]: 41.2%

Compound: CCc1c2ccccc2c(CSC(=N)NC(=N)N)c2ccccc12 [14d]
- inhibition at 10 µM [1, 7]: 17.3%
- fold decrease in anti-glioma activity ([1]; U87 inhibition rate at 10 µM): 3~4 fold

Compound: CC(C)=NNC(=N)SCc1c2ccccc2c(C)c2ccccc12 [13f]
- inhibition at 10 µM [1, 7]: 65.1%
- fold potency improvement in U87 cells compared with aryl-derived compounds ([1]; U87 inhibition rate at 10 µM): 3–4 fold

Compound: N=C(NN)SCc1ccc2ccccc2n1 [12k]
- inhibition at 10 µM [1, 7]: 10.7%

Compound: CC(=O)NC(=N)SCc1ccc(C)c2ccccc12 [12i]
- inhibition at 10 µM [1, 7]: 2.7%

Compound: CCCc1c2ccccc2c(CSC(=N)N)c2ccccc12 [14h]
- inhibition at 10 µM [1, 7]: 64.6%

Compound: CNC(=N)SCc1c2ccccc2cc2ccccc12 [14i]
- U87 (% Inhib. @ 10 µM) ([1]; 10 µM, 72 h, MTT, triplicates): 76.4%
- inhibition at 10 µM [1, 7]: 83%
